The target of the assay is GTP-binding protein GEM (Homo sapiens) (UniProt P55040). The assay is described as follows: ligand-induced stabilization of human GEM GTPase – biophysical, DSF, SYPRO orange, purified protein (AID 397). Conditions: DSF SYPRO orange thermal shift, at 10 µM, protein 2 µM, buffer 10 mM HEPES, pH 7.5, NaCl 150 mM, hits give high values.
[1] abbreviates: DTT 1000 µM, with dithiothreitol.

Each structure is given as a SMILES string.

Chain of GTP-binding protein GEM (Homo sapiens) (P55040 whole entry, looked up): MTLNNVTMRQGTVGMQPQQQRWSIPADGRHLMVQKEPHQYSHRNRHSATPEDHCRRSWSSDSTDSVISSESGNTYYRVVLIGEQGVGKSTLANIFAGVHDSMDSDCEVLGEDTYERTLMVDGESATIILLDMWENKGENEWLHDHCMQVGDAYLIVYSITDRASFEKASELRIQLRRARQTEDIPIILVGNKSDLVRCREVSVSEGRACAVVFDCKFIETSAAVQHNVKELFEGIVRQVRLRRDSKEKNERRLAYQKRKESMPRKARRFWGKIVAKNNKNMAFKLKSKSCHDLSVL

Turning to `N#CC(Cc1ccc(O)c(O)c1)C(=O)Nc1ccccc1` (stereo unspecified), the Tm shift under setting [1] was 2.7 Celsius.

For `CC[C@H](CO)Nc1nc(NCc2ccccc2)c2ncn(C(C)C)c2n1`, under setting [1], the Tm shift was 2.1 Celsius.

Take `Nc1[nH]nc2nc3ccccc3nc12`: the Tm shift under setting [1] is 2.5 Celsius.

For the molecule `O=c1cc(-c2ccc(O)cc2)oc2cc(O)cc(O)c12`, the Tm shift (DTT 1 mM) was 4.1 Celsius.

On to `NC(=O)c1ccc(-c2nc(-c3ccc4c(c3)OCCO4)c(-c3ccccn3)[nH]2)cc1`, for which the Tm shift (DTT 1 mM) was 4.5 Celsius.

In the case of `Oc1ccc(-c2nc(-c3ccc(F)cc3)c(-c3ccncc3)[nH]2)cc1`, the Tm shift (DTT 1 mM) is 6 Celsius.

For `COc1cc2ncnc(Nc3cccc(Br)c3)c2cc1OC`, where the note is “DTT 1 mM”, the Tm shift was 5.4 Celsius.

On to `C/C(O)=C(\C#N)C(=O)Nc1cc(Br)ccc1Br`, for which, under setting [1], the Tm shift was 2.2 Celsius.

Turning to `Oc1cc(O)cc(/C=C/c2ccc(O)c(O)c2)c1`, under setting [1], the Tm shift was 2.3 Celsius.

As for `CC(C)n1cnc2c(Nc3cccc(Cl)c3)nc(NCCO)nc21`, under setting [1], the Tm shift was 2.3 Celsius.

With `NC1=N/C(=C2/CCNC(=O)c3[nH]c(Br)cc32)C(=O)N1`, the Tm shift (DTT 1 mM) was 3.1 Celsius.

On to `CC(O)(O)C1(O)C[C@@H]2O[C@@]1(C)n1c3ccccc3c3c4c(c5c6ccccc6n2c5c31)C(=O)NC4` (stereo partly specified), for which the Tm shift under setting [1] was 3 Celsius.

As for `C=C(Nc1cc(NC(=O)c2cccc(N(C)C)c2)ccc1C)c1ccc(O)cc1`, the Tm shift under setting [1] was 2.8 Celsius.

As for `COc1cc(/C=C/C(=O)CC(=O)/C=C/c2ccc(O)c(OC)c2)ccc1O`, the Tm shift (GDP 40 µM) was 2.4 Celsius.

Take `Cc1ccc(NC(=O)c2snc3c(=O)[nH]cnc23)cc1`: the Tm shift is 2.1 Celsius.

Turning to `COC(=O)/C=C/c1cc(O)ccc1O`, under “DTT 1 mM”, the Tm shift is 3.2 Celsius.

For the molecule `CN(C)CCCn1cc(C2=C(c3c[nH]c4ccccc34)C(=O)NC2=O)c2ccccc21`, the Tm shift (DTT 1 mM) is 3.2 Celsius.

In the case of `Nc1cc2ncnc(Nc3cccc(Br)c3)c2cc1N`, the Tm shift (DTT 1 mM) is 3.5 Celsius.

For `O=C1Nc2ccccc2/C1=C\c1cnc[nH]1`, the Tm shift under setting [1] is 2.5 Celsius.

For `COc1cc(O)c2c(c1)oc(=O)c1c3cc(O)c(O)cc3oc21`, the Tm shift (GDP 40 µM) was 2.3 Celsius.

Take `O=C1NC(=O)c2c1c1c3ccccc3[nH]c1c1[nH]c3cc(Br)ccc3c21`: the Tm shift (DTT 1 mM, GDP 40 µM, MgCl 1 mM) is 3.1 Celsius.

On to `Ic1cccc(CSc2nnc(-c3ccncc3)o2)c1`, for which the Tm shift under setting [1] is 2.4 Celsius.

For `CC(C)(C)c1nc2c3cc[nH]c(=O)c3c3cc(F)ccc3c2[nH]1`, under setting [1], the Tm shift was 3 Celsius.

For `Cc1ccc2c(c1Br)C(=Nc1ccc(Cl)cc1)C(=O)N2`, the Tm shift is 2.3 Celsius.

With `O=S(=O)(c1cccc2c(Cl)cccc12)N1CCCNCC1`, the Tm shift under setting [1] is 2.8 Celsius.

For the molecule `O=c1c(-c2ccc(O)cc2)coc2cc(O)cc(O)c12`, the Tm shift (DTT 1 mM) was 5 Celsius.

Consider `CCCCc1c(-c2ccc(O)cc2)[nH]c2nccnc12`, for which the Tm shift under setting [1] is 2.7 Celsius.

Turning to `CCOc1c(Br)ccc2c1sc1nc[nH]c(=O)c12`, the Tm shift is 3.1 Celsius.

In the case of `Brc1c(Br)c(Br)c2n[nH]nc2c1Br`, the Tm shift (GDP 40 µM) is 2.5 Celsius.

Turning to `N#C/C(=C(/N)Sc1ccc(N)cc1)c1ccccc1C(F)(F)F`, the Tm shift under setting [1] was 2.8 Celsius.

Turning to `CN(C)S(O)(O)c1ccc2c(c1)/C(=C/c1cc3c([nH]1)CCCC3)C(=O)N2`, the Tm shift (DTT 1 mM) is 3.1 Celsius.

Values taken from PubChem BioAssay AID397 (SGCOxCompounds, 2006).
